This is an account of results in patent US5670520A, “Method for inhibiting virus replication in mammalian cells using carbostyil derivatives” (Otsuka Pharmaceutical Co., Ltd., priority 1996, dated 1997).

Molecules are shown by their SMILES.

Data set [1] concerns EBV. Kind of data set: In situ hybridization of EBV DNA in anti-IgG stimulated DMSO-released Akata cells. In kind it is cell-based, Epstein-Barr virus. As to conditions: 20 hrs after 50 μg/ml anti-IgG; vesnarinone 0-100 μg/ml; acyclovir pretreatment. The procedure:
The human Burkitt's lymphoma cell line, Akata, provided by Dr. Kenzo Takada (Takada, Int. J. Cancer, 33:27-32 (1984); and Takada et al, Virus Genes, 5:147-156 (1991)), was cultured at 37° C. in RPMI 1640 medium supplemented with 15% (v/v) heat-inactivated FCS, and 20 μg/ml gentamicin.
The cell progression of Akata cells was arrested by culturing of the cells for 96 hrs in the presence of 1.5% (y/v) DMSO (Sigma, St. Louis, Mo.) (Sawai et al, Exp. Cell Res., 187:4-10 (1990); and Takase et al, Cell Growth Differ., 3:515-521 (1992)).
1 hr after transfer (release from DMSO), a goat F(ab')2 fragment of anti-human IgG antibody (Organon Teknika, Durham, N.C.) was added at a concentration of 50 μg/ml to induce productive EBV replication (Takagi et al, Virology, 185:309-315 (1991)).
3 hrs and 20 hrs after treatment with the anti-IgG, the cells were harvested for flow cytometric detection of the BamHI Z replication activator (ZEBRA), and for in situ detection of EBV DNA, respectively. […]
More specifically, cells coated on a glass slide were fixed in acetone at room temperature for 10 min. […] Positivity for EBV DNA was determined by the presence of red-colored grains and at least 1000 cells were examined under light microscopy. […]

Data set [2] concerns CMV strain AD169. Kind of data set: CMV plaque reduction assay in MRC5 cells. The note with it: Human betaherpesvirus 5, AD169, MRC5, 168 h; single compound assay, regression analysis; read-out: MIC50 (minimum concentration that reduces plaque production by 50%). In kind it is cell-based. The procedure: More specifically, subconfluent monolayers of MRC5 cells (Biowhittaker, Walkersville, Md.) in 12-well tissue culture plates were exposed to a suspension of a 1:500 dilution of stock virus (CMV strain AD169; ATCC No. VR-538) in Eagles Minimal Essential Medium (MEM) supplemented with 2.0% (v/v) fetal bovine serum, for 2 hr at 37° C. to allow for virus absorption. The fluid containing unabsorbed virus was then removed, and the cell layer rinsed with Eagles MEM without serum.
The minimum compound concentration that reduces plaque production by 50% (MIC50) was calculated from single compound assays by using a regression analysis program for semilog curve fitting.
The following formula of additivity, which is appropriate for inhibitors affecting different sites, was used.

A short description of data set [3]: MTT cell viability of MRC5 cells. In kind it is cell-based. As to conditions: human, mrc5 cells, read-out: MTT Cell Viability (% of control). As for the experimental part:
More specifically, 5.0 μg/ml of MTT in Eagles MEM supplemented with 2.0% (v/v) fetal bovine serum was added to each well, and incubated at 37° C. for 6 hr. The cells were then solubilized by adding 30% (w/v) SDS in 0.02N HCl. The cultures were incubated overnight at 37° C. Then, the optical density was measured at 570 nm on a spectrophotometer.

Data set [4] has as its system CHO cells. Kind of data set: [3H]adenosine / [3H]adenine transport in CHO cells. The note with it: 0-750 μM vesnarinone or 0-100 μM dipyridamole, 1 min pulse.
For data set [5] the following is noted: in vivo; cited from earlier work.
In data set [6] the test system is U937 cells. The experiment in a line: Intracellular phosphorylated AZT in U937 cells (DEAE filter). As to conditions: 0-250 μM vesnarinone or 0-100 nM dipyridamole; 2 hr.
In data set [7] the test system is U937 cells. The experiment in a line: [3H]thymidine uptake in U937 cells within 1 min. The data set is classed as cell-based, human. As for the experimental part: Dipyridamole was prepared as a 50 mM stock solution dissolved in ethanol.
In data set [8] the test system is nucleoside and nucleobase transport in human T cells. The experiment in a line: [3H]nucleoside / [3H]nucleobase transport, 1 min pulse, T cells. In kind it is cell-based. As to conditions: 250 μM vesnarinone, 100 μM deferoxamine, 15 nM aphidicolin or 1.0 μM dipyridamole.
Data set [9] relates to Raji cells. The experiment in a line: [3H]adenosine / [3H]adenine transport in Raji cells. The note with it: 0-750 μM vesnarinone or 0-100 μM dipyridamole, 1 min pulse.
Data set [10] relates to CHO cells. The experiment in a line: Rescue of CHO cells from cytostatic effects of 5-FUd. The note with it: 50 nM 5-FUd, 120 hrs; 0-250 μM vesnarinone or 1.0-10 μM dipyridamole. The data set is classed as cell-based, Chinese hamster. The source says: Nucleoside transport inhibitors, such as dipyridamole or NBMPR, are known to rescue cell proliferation from the cytotoxic effects of 5-fluorouridine(5-FUd) or high dose thymidine, by inhibiting transport of this cytotoxic nucleoside analog or thymidine (Aronow et al, Mol. Cell Biol., 6:2957-2962 (1986)).

Data set [11] has as its system U937 cells. Kind of data set: Intracellular AZT-MP, AZT-DP, AZT-TP in U937 cells by HPLC. As to conditions: U937 cells, 5.0 μCi/ml [3H]AZT, 2 hr. The procedure: 1.0 ml fractions were collected, and the radioactivity was measured by liquid scintillation. The retention time for AZT and AZT-MP was confirmed using cold AZT and AZT-MP (Sigma) under the same conditions.
Intracellular concentrations of [^3 H]AZT-MP, [^3 H]AZT-DP, and [^3 H]AZT-TP were measured using HPLC as described above.

For data set [12], the system named is HIV-1 strain 18a (AZT-sensitive). Kind of data set: microbe, parasite or virus in culture. The note with it: Human immunodeficiency virus 1, PBMC, 120 h, read-out: IC50, p24 production. As for the experimental part: (§1) More specifically, PBMC were incubated for 48 hr with 3.0 μg/ml of PHA and 10 U/ml of IL-2. Then, 10-100 TCID50 virus/ml of clinical isolate strains of HIV-1, 18a (AZT-sensitive) or 18c (AZT-resistant), were added. […] After 5 days of infection, the supernatant was collected and HIV-1 p24 antigen was measured using the p24 ELISA kit (NEN Dupont).
(§2) The combination index (CI) was calculated using multiple drug effect analysis of Chou and Tala, as described by Johnson et al, J. Infect. Dis., 159:837-844 (1989). CI values of <1, =1, and >1, indicate synergism, additive effects, and antagonism, respectively.

Data set [13] concerns HIV-1 strain 18c (AZT-resistant). Kind of data set: HIV-1 p24 antigen production by infected PBMC, strain 18c. The data set is classed as cell-based. The note with it: Human immunodeficiency virus 1, 120 h; 18c infected PBMC, 5 days, AZT alone. The procedure: as §1, §2
For data set [14], the system named is human T cells. Kind of data set: Cell numbers of PHA-stimulated human T cells over 120 hrs. As to conditions: 10 μg/ml PHA, 0-120 hrs; 250 μM vesnarinone, 15 nM aphidicolin or 100 μM deferoxamine. The data set is classed as cell-based. As for the experimental part:
Next, the effects of the above-described drugs on cell proliferation were evaluated over a period of 120 hrs.

Data set [15] deals with human T cells. The experiment in a line: [3H]thymidine incorporation by PHA-stimulated human T cells. In kind it is cell-based. The note with it: 10 μg/ml PHA 48 hrs; 15 nM aphidicolin or 100 μM deferoxamine (FIG. 1B). The procedure:
More specifically, human primary T cells were separated from peripheral blood obtained by leukopheresis of healthy donors. Mononuclear cell suspensions were prepared by Ficoll-Hypaque gradient centrifugation, and T cells were obtained by E-rosette enrichment as described by Kumagai et al, J. Cell. Physiol., 137:329 (1988).
Then, 1.0 μCi of [^3 H]thymidine (6.7 Ci/mmole, ICN), was added to 2.0×10^6 cells (100 μl), and the cells were pulse-labeled for 6 hrs.

Data set [16] relates to human T cells. The experiment in a line: 30 min [3H]thymidine, [3H]uridine and [3H]amino acid incorporation. In kind it is cell-based. As to conditions: 30 min label; 250 μM vesnarinone, 15 nM aphidicolin or 100 μM deferoxamine. As for the experimental part: Next, the PHA-stimulated T cells were labelled for 30 min with 5.0 μCi/ml of an [^3 H]amino acid mixture (1.0 mCi/ml, Amersham, Arlington Heights, Ill.), washed twice with ice-cold PBS, and then lysed in PBS containing 1.0% (w/v) SDS, followed by addition of a mixture of 7.0% (w/v) trichloroacetic acid and 1.0% (w/v) pyrophosphate. The precipitates were loaded on GF/A filters, and washed extensively with a mixture of 7.0% (w/v) trichloroacetic acid and 1.0% (w/v) pyrophosphate. Radioactivity was measured by scintillation counting.

Turning to `Nc1nc2c(ncn2COCCO)c(=O)[nH]1` [acyclovir, 9-[(2-hydroxyethoxy)methyl]guanine, reference compound], the “population of EBV producing cells (positivity for EBV DNA)” value in data set [1] is “dramatically reduced by acyclovir pretreatment”.
Turning to `Nc1nc2c(ncn2COC(CO)CO)c(=O)[nH]1` [DHPG, 9-(1,3-dihydroxy-2-propoxymethyl) guanine, reference compound], in data set [2], the EC50 was above 5000 nM. Besides, in data set [3] (DHPG 0.625 μM alone), the viability at 0.625 µM came to 100%. The viability at 1.25 µM in data set [3] (DHPG 1.250 μM alone) came out at 100%. For the same compound, in data set [3] (DHPG 5.000 μM alone), the viability at 5 µM is 100%.
Take `OCCN(CCO)c1nc(N2CCCCC2)c2nc(N(CCO)CCO)nc(N3CCCCC3)c2n1` [dipyridamole, reference compound]: the “[3H]adenosine and [3H]adenine transport” value in data set [4] and in [9] was “inhibited adenosine transport in a selective fashion with no effect on adenine transport in its therapeutic range” each time. Besides, in data set [5], the therapeutic range was 10 to 100 nM. In addition, the “intracellular concentration of phosphorylated AZT” value in [6] is given as “did not affect intracellular concentrations of phosphorylated AZT”. Further, the uptake of thymidine result in [7] (0-250 μM vesnarinone or 0-1000 nM dipyridamole) is given as “inhibited the uptake of thymidine in a dose-dependent manner”. The same compound had an IC50 in data set [7] (Homo sapiens, U-937, 1 min, U937 cells, within 1 min) below 10 nM. The “transport of [3H]thymidine, [3H]adenosine, [3H]adenine, [3H]uracil” value (“transport of [3H]thymidine” below) in [8] is recorded as “suppressed nucleoside transport, but not nucleobase transport”. For the same compound, the “reversal of cytostatic effects of 5-FUd (cell number)” value in data set [10] is “significantly reversed the cytostatic effects of 5-FUd”.
As for `Cc1cn([C@H]2C[C@H](N=[N+]=[N-])[C@@H](CO)O2)c(=O)[nH]c1=O` [AZT, 3'azido-3'-deoxythymidine], the “intracellular phosphorylation of AZT” value in [11] is on record as “phosphorylated to AZT-MP, but poorly phosphorylated beyond this stage to the diphosphate form”. For the same compound, the results for the IC50 in [12] and in data set [13] were 0.67 nM and above 640 nM, respectively.
On to `CC(=O)N(O)CCCCCNC(=O)CCC(=O)N(O)CCCCCNC(=O)CCC(=O)N(O)CCCCCN` [deferoxamine], for which the “cell proliferation (cell number)” value in data set [14] is given as “no increases in cell number were observed”. Also, in data set [15], the “[3H]thymidine incorporation” value is “also inhibited [^3 H]thymidine incorporation”. In data set [16], the “[3H]thymidine incorporation, brief exposure” value is “only partially inhibited [^3 H]thymidine incorporation” and the “[3H]uridine incorporation, brief exposure” value is “did not inhibit [^2 H]uridine incorporation”. The “transport of [3H]thymidine” value in [8] was “had no effect on the transport of these nucleosides or nucleobases”.
In the case of `C[C@@]1(CO)[C@H](O)CC[C@@]2(C)[C@H]1CC[C@H]1C[C@@H]3C[C@@]12CC[C@]3(O)CO` [aphidicolin], the “cell proliferation (cell number)” value in data set [14] is on record as “no increases in cell number were observed”. The “[3H]thymidine incorporation” value in [15] was “also inhibited [^3 H]thymidine incorporation”. Also, in [16], the “[3H]uridine incorporation, brief exposure” value is “did not inhibit [^2 H]uridine incorporation”. Besides, the “transport of [3H]thymidine” value in [8] is “had no effect on the transport of these nucleosides or nucleobases”.
